Experimental data as given in paper PMC10376843, “Discovery of Novel Myristic Acid Derivatives as N-Myristoyltransferase Inhibitors: Design, Synthesis, Analysis, Computational Studies and Antifungal Activity” (Antibiotics, 2023).
Values after ≈ are worked out from the molar mass of the structure shown. Where two headings read alike, the source gives them in different places.

Assays:
[1] = tested on: Candida albicans (ATCC 10231); test: antifungal micro-broth dilution assay, C. albicans; assay type: cell-based; settings: ATCC10231, 48 h
Procedure: (§1) A microbroth dilution method was used to test the synthesized compounds. In vitro tests for antifungal activity against Candida albicans (C. albicans) and Aspergillus niger (A. niger) were carried out in triplicate at concentrations ranging from 100 μg/mL to 6.25 μg/mL. The percentage cytotoxicity and MIC50 value for each compound were calculated from the observed absorbance measured at 590 nm, and the results are shown in Table 5. Fluconazole was used as a reference drug, and the antifungal activities were expressed as minimum inhibitory concentration (MIC50) values in μg/mL.
(§2) From HIMEDIA M210 Mumbai, India, test fungal strains were acquired. The conventional micro-broth dilution method was used to test the in vitro antifungal activity of the synthesized compounds against the fungi Candida albicans (ATCC 10231) and Aspergillus niger (ATCC 16888) from the American Type Culture Collection. The acquired fungal strains were used in the current experiment after being subcultured in SDB (Sabouraud dextrose broth). The 48 h young cultures were created and kept at 26 °C before the experiment.
(§3) According to the CLSI’s standard M27 recommended methodology, the SDB was treated with the compounds, which were dissolved in DMSO via the serial dilution method in sterile circumstances to achieve the necessary concentration levels. All the cultures that had been exposed to the compounds were serially diluted twice in growth media, inoculated to about 1 × 10^5 CFU/mL and incubated at 26 °C for 48 h. Subsequently, using a UV spectrophotometer, the absorbance at 590 nm of each culture was determined. The formula was used to compute the viability percentage.
(§4) Percentage viability = ([…]) × 100
(§5) The percentage inhibition was calculated using the formula (100 - cell viability) and plotted in the graph to determine the MIC50 value for each compound (Figure 8) and (Figure 9).
(§6) GraphPad Prism 8.0.2 software (San Diego, CA, USA) was used for statistical analysis. The MIC50 value was established via a nonlinear regression analysis.

[2] = target: N-Myristoyltransferase (NMT); test: in vitro biochemical NMT inhibition assay (fluorescence detection of CoA); settings: 0.1 nM to 10,000 nM; excitation 380 nm, emission 470 nm
Procedure: The potency of the myristic acid derivatives was determined via an in vitro NMT assay. Coenzyme A (CoA) was detected as a byproduct of an enzymatic reaction. Fluorescence was measured at an excitation wavelength of 380 nm and an emission wavelength of 470 nm. In this assay, the intensity of fluorescence was […], giving a signal (Figure 7).
The NMT protein used in the study was from the supplier Ray Biotech. The assay was performed in 96-well black PP microplates with the myristic acid derivatives in concentrations ranging from 0.1 nM to 10,000 nM. The solutions were prepared in a buffer containing 20 mM of potassium phosphate (pH 7.9–8.0) and 0.5 mM of ethylenediaminetetraacetic acid (EDTA), 0.1% (v/v) Triton X-100, and a final concentration of 2.7% (v/v) dimethyl sulfoxide (DMSO). Fluorescence was measured at an excitation wavelength of 380 nm and an emission wavelength of 470 nm. These readings were obtained on an EnSight Multimode Microplate Reader, and we plotted the response vs. concentration (log nM), ranging from 0.1 nM to 10,000 nM, to obtain the IC50 values using Graph Pad Prism, according to the reported standard procedure.

[3] = tested on: Aspergillus niger (ATCC 16888); test: antifungal micro-broth dilution assay, A. niger; assay type: cell-based; settings: read-out: MIC50 A. niger
Procedure: as §1, §2, §3, §4, §5, §6

[4] = ATCC 10231, 26 °C, 100 to 6.25 μg/mL, absorbance 590 nm, read-out: MIC50 C. albicans
[5] = ATCC16888, ATCC 16888, 48 h, 26 °C, 100 to 6.25 μg/mL, absorbance 590 nm

| SMILES | IC50 [1, 4] [µg/mL] | IC50 [2] [µM] | IC50 [3, 5] [µg/mL] | IC50 ([1]; read-out: MIC50 C. albicans, ATCC 10231, 26 °C, 100 to 6.25 μg/mL, absorbance 590 nm) [µg/mL] | IC50 ([3]; ATCC16888, 48 h) [µg/mL] |
| --- | --- | --- | --- | --- | --- |
| CCCCCCCCCCCCCC(=O)Nc1cccc(C)c1 [Compound 3k, N-(m-tolyl) tetradecanamide] | 10.8 (≈ 33.9 µM) | 1.29 | 59.6 (≈ 188 µM) |  |  |
| CCCCCCCCCCCCCC(=O)Nc1ccc(OCC)cc1 [Compound 3l, N-(4-ethoxyphenyl) tetradecanamide] | 15 to 22 (≈ 43.2 to 63.3 µM) | > 1.5 | 75.9 (≈ 218 µM) |  |  |
| CCCCCCCCCCCCCC(=O)NC1CCCCC1 [Compound 3m, N-cyclohexyltetradecanamide] |  | 0.863 |  | 15 to 22 (≈ 48.5 to 71.1 µM) | 14.7 (≈ 47.4 µM) |
| CCCCCCCCCCCCCC(=O)Nc1ccc(F)cc1 [Compound 3r, N-(4-fluorophenyl) tetradecanamide] | 11.9 (≈ 37 µM) | 1.46 | 15.4 (≈ 48 µM) |  |  |
| CCCCCCCCCCCCCC(=O)Nc1ccc(C(F)(F)F)cc1 [Compound 3s, N-(4-(trifluoromethyl)phenyl)tetradecanamide] | 38.8 (≈ 104 µM) | > 1.5 | 34.3 (≈ 92.3 µM) |  |  |
| CCCCCCCCCCCCCC(=O)O [Myristic acid] |  | 4.21 |  |  |  |

Continued, in another order:

| IC50 [1, 4] [µg/mL] | IC50 [2] [µM] | IC50 [3, 5] [µg/mL] | SMILES | IC50 ([1]; read-out: MIC50 C. albicans, ATCC 10231, 26 °C, 100 to 6.25 μg/mL, absorbance 590 nm) [µg/mL] | IC50 ([3]; ATCC16888, 48 h) [µg/mL] |
| --- | --- | --- | --- | --- | --- |
| 27.6 (≈ 92.8 µM) | > 1.5 | 31.4 (≈ 106 µM) | CCCCCCCCCCCCCC(=O)N1CCOCC1 [Compound 3n, 1-morpholinotetradeca-1-one] |  |  |
| 15 to 22 (≈ 47.2 to 69.3 µM) | > 1.5 | 94.2 (≈ 297 µM) | CCCCCCCCCCCCCC(=O)N(C)c1ccccc1 [Compound 3o, N-methyl-N-phenyltetradecanamide] |  |  |
| 15 to 22 (≈ 49.4 to 72.5 µM) | > 1.5 | 24.8 (≈ 81.6 µM) | CCCCCCCCCCCCCC(=O)Nc1ccccc1 [Compound 3p, N-phenyltetradecanamide] |  |  |
| 28.4 (≈ 85.7 µM) | > 1.5 | 28.5 (≈ 86.1 µM) | CCCCCCCCCCCCCC(=O)N(CC)c1ccccc1 [Compound 3q, N-ethyl-N-phenyltetradecanamide] |  |  |
| 12.9 (≈ 40.5 µM) | 1 | 17.4 (≈ 54.5 µM) | CCCCCCCCCCCCCC(=O)Nc1ccc(O)cc1 [Compound 3t, N-(4-hydroxyphenyl) tetradecanamide] |  |  |
| 10.6 (≈ 34.9 µM) | 0.835 | 14.4 (≈ 47.2 µM) | CCCCCCCCCCCCCC(=O)Nc1ccccn1 [Compound 3u, N-(pyridine-2-yl) tetradecanamide] |  |  |
| 32.4 (≈ 99.8 µM) | > 1.5 | 22.1 (≈ 68.3 µM) | CCCCCCCCCCCCCC(=O)Nc1nc(C)cs1 [Compound 3v, N-(4-methylthiazol-2-yl) tetradecanamide] |  |  |
| 17.8 (≈ 58 µM) |  | 16.3 (≈ 53.2 µM) | OC(Cn1cncn1)(Cn1cncn1)c1ccc(F)cc1F [FLZ, Fluconazole, reference compound] |  |  |
